According to patent US20100168228A1, “NOVEL CHEMOTHERAPEUTIC AGENTS AGAINST INFLAMMATION AND CANCER” (RELIANCE LIFE SCIENCES PVT. LTD., priority 2006, published 2010):

How the values were obtained:
Assay type in all cases: cell-based, human
Jurkat cells [1] = test: Measurement of reactive oxygen intermediates (ROI) by flow cytometry; conditions: pretreated 1 h, TNF 1 nM 4 h
Experimental: The production of ROI in cells treated with TNFα or LPS was determined by flow cytometer as described by (Manna, S. K. et. al., J. Immunol. (1999) 162(3):1510-1518). Briefly Jurkat cells (5×10^5 cells in one ml) were incubated either with RPMI 1640 medium supplemented with 10% FBS or with complete media containing different concentrations of CAMVE for 1 h at 37° C. Cells were then stimulated with 1 nM of TNF for 4 h. After incubation, the cells were washed with D-PBS, and resuspended in 1 ml D-PBS. To detect ROI production, cells were exposed to Dihydrorhodamine 123 (5 mM stock) at a final concentration of 1 μM for 1 hr at 37° C. with moderate shaking (100 rpm) and then washed with D-PBS three times and resuspended in 1 ml of D-PBS. Rhodamine 123 fluorescence intensity resulting from Dihydrorhodamine 123 oxidation was measured by FACS Calibur (Becton Dickinson) with excitation at 488 nm and was detected between […]. Data was analyzed using Cell Quest software (Becton Dickinson).

Jurkat cells [2] = test: Nuclear staining assay (propidium iodide), Jurkat; conditions: 24 h
Experimental: Nuclear staining assay: After treatment with the compound for 24 h, Jurkat cells were washed once with ice-cold EDTA/PBS (5 mM) and fixed with 70% ethanol for 1 h at RT. Fixed cells were placed on slides and stained with PI (5 μg/ml) with RNase A (1 mg/ml) for 20 mins. After decolourization with water, nuclear morphology of cells was examined by fluorescence microscopy.

bax = bax mRNA, semi-quantitative RT-PCR, Jurkat; conditions: increasing concentrations
Experimental: FIG. 18: Effects of compound 27 on p53, Bax, bcl-2 mRNA levels in Jurkat cells. Expression of human p53, bax-α, bcl-2, was assayed by semi quantitative RT-PCR analysis with GAPDH as internal control. Cells were treated for 24 h with various doses of the compound (0, 50, 100 and 500 nM), then total RNA was extracted and submitted to RT-PCR.
RNA extraction: Total RNA was isolated using the standard TRIzol method (Gibco BRL). Briefly, 3×10^6 cells were treated with different concentrations of the compounds as indicated in the legends to Figures and after harvesting the cell pellet was resuspended in 1 ml of TRIzol with repeated pipetting. The homogenized sample was incubated at RT for 5 min to permit complete dissociation of the nucleoprotein complexes. […] of chloroform was added and the tubes were shaken vigorously for 15 sec by hand and then incubated at RT for 3 mins. The samples were then centrifuged at 10,000 RPM for 15 mins at 4° C. The aqueous phase was transferred to a fresh tube and 500 μl of Isopropyl alcohol was added, followed by incubation at RT for 10 mins. […]
Semi-quantitative reverse transcriptase (RT)-PCR: Changes in gene expression were verified by semi-quantitative RT-PCR using GAPDH as an internal normalization standard. 1 μg of total RNA (quantified by spectrophotometer) was used to reverse transcribe into cDNA. […]

Structure (SMILES) | TNF induced ROI generation (Jurkat cells [1]) | nuclear morphology after propidium iodide staining (Jurkat cells [2]) | pro-apoptotic bax mRNA levels (bax)
COC(=O)c1ccc(OC(=O)/C=C/c2ccc(O)c(O)c2)c(OC)c1 [compound 1, Methyl 4-{[(2E)-3-(3,4-dihydroxyphenyl)prop-2-enoyl]oxy}-3-methoxybenzoate] | suppressed on pretreatment of cells with CAMVE in a dose dependent fashion |  | 
COc1cc([C@@H]2Oc3c(OC)cc(/C=C/C(=O)O)cc3[C@H]2C(=O)O)ccc1O [compound 27, 5-[(E)-2-carboxyvinyl]-2β-(4-hydroxy-3-methoxyphenyl)-7-methoxy-2,3-dihydro-1-benzofuran-3α-carboxylic acid] |  | typical apoptotic nuclei | increased the pro-apoptotic bax mRNA levels
